Where “and” joins values, the source holds several entries; their conditions need not be identical. Equal values may be shown once. Entries after “also recorded” stand apart in the source; their conditions may differ.
How the values were obtained:
human spermatozoa [1] = experiment: Intracellular free calcium ([Ca2+]i) by single cell fura-2 imaging in human spermatozoa; type: cell-based; details: for effect of non-genomic VDR antagonist pretreatment on the calcium response to 1,25(OH)2D3: pretreatment 1-40 μM
Experimental: The intracellular free calcium concentration ([Ca2+]i) was measured in human spermatozoa from 12 normal men. Freshly delivered semen samples went through percoll density gradient centrifugation to optimize the number of spermatozoa expressing VDR and the metabolising enzymes. […] Subsequently 80 μl sperm content were diluted in 920 μl Krebs-Ringer buffer and were loaded on polynysine-coated chambers to minimize movement of the vital spermatozoa (Lab-Tek; Nalge Nunc International, USA).
Excitation was obtained by a Polychrome V illuminator from Till Photonics (Germany) and images were acquired using a Cool Snap CCD camera (Photometrics, USA) from Robert Scientific (Malaysia).
After background subtraction, ratio images were formed using MetaFluor software.
Semen samples were separated by percoll density gradient centrifugation to ensure viable and motile spermatozoa and resuspended in capacitating media for 1.5 hours. Afterwards, loaded with 3 μM of the fluorescent probe (intracellular calcium binding) fura-2/AM (Invitrogen, USA) for 30 min, centrifuged (10 min at 300 g) and washed with Krebs-Ringer buffer (120 mM NaCl, 15 mM NaHCO3, 5 mM KCl, 1 mM CaCl2, 5 mM Na2HPO4, 1 mM MgCl2 pH 7.3). […] Subsequently, 80 μl of the sperm sample was diluted in 920 μl Krebs-Ringer buffer and loaded on polylysine-coated chambers to minimize movement of the spermatozoa (Lab-Tek; Nalge Nunc International, USA). […] Excitation was obtained by a Polychrome Villuminator from Till Photonics (Germany) and images were acquired using a Cool Snap CCD camera (Photometrics, USA) from Robert Scientific (Malaysia). […] After background subtraction, ratio images were formed using MetaFluor software.
All experiments started by using low magnification to ensure visibility of several spermatozoa simultaneously. […] All measurements of [Ca2+]i were based upon evaluation of at least three spermatozoa simultaneously (see exact number in figure legends), and were repeated in at least three separate experiments. We used 10 different semen donors to ensure that all experiments were reproduced on semen samples from at least two different men.

human spermatozoa [2] = experiment: Acrosome reaction of motile spermatozoa (Pisum sativum agglutinin-FITC staining); type: cell-based
Experimental: Acrosome status was assessed according to a modified version of the method described by Cross et al. 1986. […] . When more than half the head of a spermatozoon was brightly and uniformly fluorescent, the acrosome was considered to be intact. Spermatozoa without fluorescence or with a fluorescing band limited to the equatorial segment were considered to be acrosome-reacted. Spermatozoa with a fluorescing band limited to the equatorial segment were named eq-AR. The person assessing the slides was blinded to the treatment of the sample.

human spermatozoa [3] = experiment: Induction of sperm motility (ABC motility) in semen samples in vitro; details: for sperm motility (ABC) in young normal men: 1 nM 1,25(OH)2D3, p=0.01; for sperm motility in infertile/subfertile men: 1 nM 1,25(OH)2D3, p=0.80
Experimental: The preparation was placed on the heating stage of a microscope at 37° C. and immediately examined at x400 magnification counting 200 spermatozoa. The sperm were classified as progressive motile (WHO class A+B), non-progressive motile (class C) or immotile (class D). The motility counting was repeated on a second aliquot of 10 μl well-mixed semen.
The participants produced a semen sample by masturbation. Self-reported information of duration of ejaculation abstinence was obtained. Trained technicians conducted semen analysis Semen volume was estimated by weighing. For sperm motility assessment, duplicates of 10 μl of well-mixed semen were placed on a glass slide, examined on a heating stage kept at 37° C., under a microscope at ×400 magnification, and spermatozoa were classified as progressive motile (WHO class A+B), non-progressive motile (class C) or immotile (class D). The average of the two motility assessments was used. For the assessment of the sperm concentration the samples were diluted in a solution of 0.6 mol/l NaHCO3 and 0.4% (v/v) formaldehyde in distilled water, and subsequently assessed using Bürker-Türk haemocytometer. Only spermatozoa with tails were counted. Finally, smears were prepared, Papanicolaou stained and spermatozoa morphology assessed according to strict criteria.
Their semen samples were assessed as described above. […] Motility assessment was conducted in 17 samples (in duplicates) under non-capacitating conditions (in their seminal plasma), and 3 samples were also analyzed in capacitating conditions. 7 consecutively included men were used to investigate a dose-response relationship between VD and sperm motility.

[4] = 1,25(OH)2D3 after pretreatment with nifedipine 10 μM
[5] = higher 1,25(OH)2D3 concentrations

## C=C1/C(=C\C=C2/CCC[C@]3(C)[C@@H]([C@H](C)CCCC(C)(C)O)CC[C@@H]23)C[C@@H](O)C[C@@H]1O [1,25(OH)2D3, 1,25-dihydroxyvitamin D3]
Human spermatozoa [1]
  effect of pre-treatment with 1,25(OH)2D3 on the calcium effect of progesterone: could not be abrogated
Human spermatozoa [1]; 1 nM 1,25(OH)2D3
  maximum amplitude of the calcium increase, higher than baseline calcium level: 5-10 fold
Human spermatozoa [1]; 1 nM 1,25(OH)2D3, versus capacitating media
  calcium response in non-capacitating media: lower amplitude
Human spermatozoa [1]; 1,25(OH)2D3 (1 nM elsewhere in the source)
  amplitude relative to the amplitude elicited by 10 μM progesterone: 40% and 40-80%
Human spermatozoa [1]; 1,25(OH)2D3, printed range 50 μM-10 μM, 100 μM-10 μM
  effect on intracellular calcium: induced a rapid increase in intracellular calcium
Human spermatozoa [1]; 1,25(OH)2D3 added to motile spermatozoa, calcium containing medium
  increase in intracellular calcium from baseline: 5-10 fold
Human spermatozoa [1]; [4]
  length of repolarisation phase: 4 min
  maximum amplitude of calcium increase, higher than baseline: 7 fold
Human spermatozoa [1]; 1,25(OH)2D3 concentration
  threshold for the observed all-or-nothing calcium response: 10 to 50 µM
Human spermatozoa [1]; <10 nM 1,25(OH)2D3
  duration of plateau phase: up to 50 sec
Human spermatozoa [1]; after addition of 1,25(OH)2D3
  start of the calcium increase in the neck region: ≤ 5 s
Human spermatozoa [1]; calcium free media, 5 μM EGTA
  increase in [Ca2+]i in calcium free media with EGTA (words): Neither, 1,25(OH)2D3 nor progesterone were able to induce an increase in intracellular calcium; also recorded: could not induce an increase in [Ca2+]i
Human spermatozoa [1]; [5]
  dependence of amplitude on concentration: did not seem to increase markedly with higher concentration; also recorded: did not increase with higher 1,25(OH)2D3 concentrations
  duration of plateau phase: 50 to 300 s
Human spermatozoa [1]; potentially contaminated [Ca2+]<5 uM
  calcium response in calcium free media without EGTA: marked response; also recorded: increased intracellular calcium rapidly
Human spermatozoa [2]; 1,25(OH)2D3 10^-9M (control 4.7%), p=0.214
  median percentage of spermatozoa with an equatorial band (eq. AR): 5.3%
Human spermatozoa [2]; 1,25(OH)2D3 10^-9M, capacitating media (control 12%)
  median percentage of acrosome reacted spermatozoa: 21%
Human spermatozoa [2]; 1,25(OH)2D3 10^-9M, capacitating media, p=0.024
  average increase in acrosome reacted spermatozoa: 6%
Human spermatozoa [2]; NaCl, 6 men, VD treated (control 3.7%)
  acrosome reacted spermatozoa in non-capacitating conditions: 4.2%
Human spermatozoa [3]
  sperm motility (ABC) in young normal men: increased significantly; also recorded: modest increase in sperm motility
  sperm motility in infertile/subfertile men: did not increase; also recorded: no increase in sperm motility
Human spermatozoa [3]; listed as calcitriol
  sperm motility (ABC) in young normal men: significant increase in normal men
  sperm motility in infertile/subfertile men: unable to increase motility in infertile men
Human spermatozoa [3]; listed as activated VD
  sperm motility in infertile/subfertile men: did not increase in sperm motility
Human spermatozoa [3]; 1,25(OH)2D3 10-14M to 10^-9M, dose-response, 7 men
  increase in median sperm motility (ABC): 2-7%
Human spermatozoa [3]; 1,25(OH)2D3 10^-5M
  median decrease in sperm motility compared with control: 15%
Human spermatozoa [3]; 1,25(OH)2D3 10^-9M, p=0.006
  median increase in sperm motility (ABC): 7%
Human spermatozoa [3]; 1,25(OH)2D3 concentrations above 10^-7M
  sperm motility: decreased motility compared with control
Human spermatozoa [3]; 10^-9M 1,25(OH)2D3, 30 min, room temperature, 17 men, p=0.010
  increase in mean sperm motility: 2.9%

## C=C1/C(=C\C=C2/CCC[C@]3(C)[C@@H]([C@H](C)/C=C/[C@@H](O)C4(C(=O)OCCCC)CC4)CC[C@@H]23)C[C@@H](O)C[C@@H]1O [ZK159222]
Human spermatozoa [1]; ZK159222 0.1-100 μM, 1 nM calcitriol
  effect of nuclear VDR antagonist on the calcium response to 1,25(OH)2D3: could not be abrogated; also recorded: unable to abrogate or suppress the effect of 1,25(OH)2D3 treatment

## C[C@H](CCC(=O)O)C[C@H](C)C[C@H](C)C(=O)/C=C(\O)[C@H](C)C[C@H](C)C/C=C/[C@@H](C)[C@@H](O)[C@@H](C)[C@@H](O)C[C@@H]1CC[C@@](C)([C@H]2CC[C@@](C)([C@@H](C)O)O2)O1 [ionomycin]
Human spermatozoa [1]; ionomycin 500 nM
  increase in [Ca2+]i in calcium free media with EGTA (words): low but significant increase in the intracellular calcium; also recorded: elicited only a small Ca2+ rise
Human spermatozoa [1]; ionomycin 500 nM, calcium free media with EGTA
  amplitude of the response from baseline: < 3 fold
Human spermatozoa [1]; ionomycin 500 nM, listed as Ionomycin
  increase in [Ca2+]i in calcium free media with EGTA (words): low but reproducible increase in [Ca2+]i

## COc1ccc2c(c1)CC[C@@H]1[C@@H]2CC[C@]2(C)[C@@H](NCCCCCCN3C(=O)C=CC3=O)CC[C@@H]12 [U73122, 1-[6-[[17fi-3-methoxyestra-1,3,5(10)-trien-17-yl]amino]hexyl]-1H-pyrrole-2,5-dione]
Human spermatozoa [1]; 2 μM U73122, no concentration
  effect on the calcium response to 1,25(OH)2D3: unable to induce a rapid increase in [Ca2+]i; also recorded: caused a delayed and diminished response to 1,25(OH)2D3
Human spermatozoa [1]; 5 μM U73122
  effect on the rapid calcium increase elicited with 1 nM 1,25(OH)2D3: delayed in these spermatozoa and the amplitude was smaller or absent
Human spermatozoa [1]; 5 μM U73122, normal calcium containing media
  spermatozoa that remained low and stable in intracellular calcium: 10-20%
Human spermatozoa [1]; 10 μM U73122
  increase of baseline [Ca2+]i: more than 5 fold
  spermatozoa that increased their baseline [Ca2+]i: > 80%
Human spermatozoa [1]; U73122
  effect of PLC inhibition on the calcium effect of progesterone: unable to abrogate the effect of progesterone

## C/C=C(/C)C(=O)O[C@H]1C(C)=C2[C@H]([C@@H]1OC(=O)CCCCCCC)[C@@](C)(OC(C)=O)C[C@H](OC(=O)CCC)[C@@]1(O)[C@H]2OC(=O)[C@@]1(C)O [thapsigargin]
Human spermatozoa [1]; thapsigargin 4 μM
  effect on baseline calcium concentration: caused a slow increase in baseline calcium concentration
Human spermatozoa [1]; thapsigargin 4 μM, 1,25(OH)2D3 added 9 min later
  calcium response to 1,25(OH)2D3 after thapsigargin: unable to elicit a substantial calcium response; also recorded: diminished the effect of 1,25(OH)2D3
Human spermatozoa [1]; thapsigargin 4 μM, nine minutes after exposure
  stable plateau, higher than baseline calcium concentration: 3 fold
Human spermatozoa [1]; thapsigargin <1 μM
  calcium response to 1,25(OH)2D3 after thapsigargin: unable to abrogate the effect of 1,25(OH)2D3

## C=C1CC[C@H](O)C/C1=C/C=C1\CCC[C@]2(C)[C@@H]([C@H](C)CCCC(C)(C)O)CC[C@@H]12 [25-OH D3, 25-hydroxycholecalciferol]
Human spermatozoa [1]; 25-OH D3 up to 100 nM, normal media
  effect on intracellular calcium: no effect on intracellular calcium levels
Human spermatozoa [1]; 25-OH D3 up to 100 nM, normal media, listed as 25-0H D3
  effect on intracellular calcium: unable to elicit an increase in [Ca2+]i

## C=C1/C(=C\C=C2/CCC[C@]3(C)[C@@H]([C@H](C)CCCC(C)(C)O)CC[C@@H]23)C[C@@H](O)C[C@H]1O [1β, 25(OH)2D3]
Human spermatozoa [1]; 1 nM calcitriol
  effect of non-genomic VDR antagonist pretreatment on the calcium response to 1,25(OH)2D3: completely blocked; also recorded: abrogated the response to 1,25(OH)2D3 completely
Human spermatozoa [1]; 1 nM calcitriol, listed as 1β,25(OH) 2D3
  effect of non-genomic VDR antagonist pretreatment on the calcium response to 1,25(OH)2D3: blocked completely

## CC(=O)[C@H]1CC[C@H]2[C@@H]3CCC4=CC(=O)CC[C@]4(C)[C@H]3CC[C@]12C [progesterone]
Human spermatozoa [1]; calcium free media, 5 μM EGTA
  increase in [Ca2+]i in calcium free media with EGTA (words): Neither, 1,25(OH)2D3 nor progesterone were able to induce an increase in intracellular calcium; also recorded: could not induce an increase in [Ca2+]i

— patent US20130045890A1, “TEST FOR MALE FERTILITY” (Rigshospitalet Copenhagen University Hospital, priority 2010, published 2013)
